{"source": "paper PMC8279981", "about": "“A first-in-human, phase 1 study of the NEDD8 activating enzyme E1 inhibitor TAS4464 in patients with advanced solid tumors” (Investigational New Drugs, 2021)", "origin": "cited, not measured here", "key": {"[1]": {"test_system": "cells derived from macrophages", "parameters": "method as in PMID 22927439", "details": "cited from earlier work"}, "[2]": {"test_system": "rats", "parameters": "method as in PMID 27551465, PMID 22927439", "details": "cited from earlier work"}, "[3]": {"test_system": "bleomycin-induced idiopathic pulmonary fibrosis models", "parameters": "method as in PMID 28469786", "details": "cited from earlier work"}, "[4]": {"test_system": "patients", "parameters": "method as in PMID 26561559, PMID 25733005, PMID 27056178, PMID 26423795", "details": "clinical trials; cited from earlier work"}}, "note": "Where two headings read alike, the source gives them in different places.", "data": [{"molecule": "NS(=O)(=O)OC[C@@H]1C[C@@H](n2ccc3c(N[C@H]4CCc5ccccc54)ncnc32)C[C@@H]1O", "note": "[MLN4924]", "values": [{"measurement": "production of TNF-α", "setting": "[1]", "value": "suppress the production of TNF-α"}, {"measurement": "AST, ALT, sorbitol dehydrogenase", "setting": "[2]; combination of TNF-α and MLN4924", "value": "Increases in laboratory values"}, {"measurement": "AST, ALT, sorbitol dehydrogenase", "setting": "[2]; rats, MLN4924 administration alone", "value": "no increases in AST, ALT, or sorbitol dehydrogenase"}, {"measurement": "efficacy in pulmonary fibrosis models", "setting": "[3]", "value": "efficacy in bleomycin-induced idiopathic pulmonary fibrosis models has been shown"}, {"measurement": "abnormal liver function tests (ALT and AST increased)", "setting": "[4]", "value": "one of the major AEs"}]}]}
